# pIC50: −log10 of the molar value.
# Target: T1, human TLR7 (Homo sapiens, UniProt Q9NYK1)
# T1 construct: host or cells: HEK293 (HEK-Blue hTLR7)
# T1 sequence (Q9NYK1 27-1049): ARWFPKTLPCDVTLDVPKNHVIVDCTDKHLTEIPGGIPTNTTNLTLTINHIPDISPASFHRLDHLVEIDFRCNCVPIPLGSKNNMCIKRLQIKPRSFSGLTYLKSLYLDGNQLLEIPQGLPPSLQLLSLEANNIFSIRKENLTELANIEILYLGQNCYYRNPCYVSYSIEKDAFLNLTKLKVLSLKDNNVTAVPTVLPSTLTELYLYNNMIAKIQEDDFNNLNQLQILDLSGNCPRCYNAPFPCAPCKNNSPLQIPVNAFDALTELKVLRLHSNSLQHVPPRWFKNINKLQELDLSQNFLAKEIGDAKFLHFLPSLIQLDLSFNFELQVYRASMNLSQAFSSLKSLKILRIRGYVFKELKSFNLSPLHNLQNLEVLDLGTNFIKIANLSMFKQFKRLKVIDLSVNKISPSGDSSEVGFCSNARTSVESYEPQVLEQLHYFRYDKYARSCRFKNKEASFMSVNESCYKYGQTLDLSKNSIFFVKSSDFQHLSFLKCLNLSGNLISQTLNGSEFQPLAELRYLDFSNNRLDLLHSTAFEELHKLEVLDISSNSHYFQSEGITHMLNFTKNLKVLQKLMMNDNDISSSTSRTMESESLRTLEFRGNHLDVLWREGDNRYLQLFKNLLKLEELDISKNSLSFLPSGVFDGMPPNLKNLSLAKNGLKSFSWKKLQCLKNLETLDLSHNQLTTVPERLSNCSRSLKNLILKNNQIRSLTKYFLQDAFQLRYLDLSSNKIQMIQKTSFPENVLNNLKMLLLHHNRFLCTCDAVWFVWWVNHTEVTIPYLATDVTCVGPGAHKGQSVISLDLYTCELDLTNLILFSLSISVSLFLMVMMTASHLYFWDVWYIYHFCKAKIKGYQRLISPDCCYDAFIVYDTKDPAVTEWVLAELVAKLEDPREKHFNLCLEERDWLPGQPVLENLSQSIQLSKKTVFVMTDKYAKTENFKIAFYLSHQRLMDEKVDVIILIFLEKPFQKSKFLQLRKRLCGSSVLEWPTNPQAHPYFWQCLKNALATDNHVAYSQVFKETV
# Assay: HEK293-Blue-hTLR-7 cells assay
# Assay type: cell-based
# Conditions: HEK293-Blue-hTLR7 cells, R848 stimulation, 20 hrs, SEAP reporter; read-out: HEK/hTLR7 IC50
# From the text: A stable HEK293-Blue-hTLR-7 cell line was purchased from InvivoGen (Cat. #: hkb-htlr7, San Diego, California, USA). These cells were originally designed for studying the stimulation of human TLR7 by monitoring the activation of NF-κB. A SEAP (secreted embryonic alkaline phosphatase) reporter gene was placed under the control of the IFN-β minimal promoter fused to five NF-κB and AP-1-binding sites. The SEAP was induced by activating NF-κB and AP-1 via stimulating HEK-Blue hTLR7 cells with TLR7 ligands. Therefore the reporter expression was declined by TLR7 antagonist under the stimulation of a ligand, such as R848 (Resiquimod), for incubation of 20 hrs. The cell culture supernatant SEAP reporter activity was determined using QUANTI-Blue™ kit (Cat. #: rep-qb1, Invivogen, San Diego, Ca, USA) at a wavelength of 640 nm, a detection medium that turns purple or blue in the presence of alkaline phosphatase.
# HEK293-Blue-hTLR7 cells were incubated at a density of 250,000˜450,000 cells/mL in a volume of 170 μL in a 96-well plate in Dulbecco's Modified Eagle's medium (DMEM) containing 4.5 g/L glucose, 50 U/mL penicillin, […], […], 2 mM L-glutamine, 10% (v/v) heat-inactivated fetal bovine serum with addition of 20 μL test compound in a serial dilution in the presence of final DMSO at 1% and 10 μL of 20 uM R848 in above DMEM, perform incubation under 37° C. in a CO2 incubator for 20 hrs. Then 20 μL of the supernatant from each well was incubated with 180 μL Quanti-blue substrate solution at 37° C. for 2 hrs and the absorbance was read at 620˜655 nm using a spectrophotometer. The signaling pathway that TLR7 activation leads to downstream NF-κB activation has been widely accepted, and therefore similar reporter assay was modified for evaluating TLR7 antagonist.
row,pIC50,Compound
1,7.31,"C[C@@H]1CN(c2ccc(C#N)c3ncccc23)C[C@@H]2C[C@@H](Oc3cncc(N4CCNCC4)c3)CCN21 [Example 29, 5-[(4R,8S,9aS)-4-methyl-8-[(5-piperazin-1-yl-3-pyridyl)oxy]-1,3,4,6,7,8,9,9a-octahydropyrido[1,2-a]pyrazin-2-yl]quinoline-8-carbonitrile]"
2,7.34,"C[C@@H]1CN(c2ccc(C#N)c3ncccc23)C[C@@H]2C[C@@H](Oc3ccc(N4CCNCC4)cn3)CCN21 [Example 11, 5-[(4R,8S,9aS)-4-methyl-8-[(5-piperazin-1-yl-2-pyridyl)oxy]-1,3,4,6,7,8,9,9a-octahydropyrido[1,2-a]pyrazin-2-yl]quinoline-8-carbonitrile]"
3,8.40,"C[C@@H]1CN(c2ccc(C#N)c3ncccc23)C[C@@H]2C[C@H](c3ccc(N4CCNCC4)nc3)CCN21 (stereo in doubt) [Example 2, 5-[(4R,8R)-4-methyl-8-(6-piperazin-1-yl-3-pyridyl)-1,3,4,6,7,8,9,9a-octahydropyrido[1,2-a]pyrazin-2-yl]quinoline-8-carbonitrile]"
4,8.40,"C[C@@H]1CN(c2ccc(C#N)c3ncccc23)C[C@@H]2C[C@@H](c3ccc(C4CNCCO4)cc3)CCN21 (stereo partly drawn) [Example 24, 5-[(4R,8S,9aS)-4-methyl-8-(4-morpholin-2-ylphenyl)-1,3,4,6,7,8,9,9a-octahydropyrido[1,2-a]pyrazin-2-yl]quinoline-8-carbonitrile]"
5,7.32,"CO[C@H]1CN(c2ccc(C3CN([C@@H]4CCN5[C@@H](C4)CN(c4ccc(C#N)c6ncccc46)C[C@H]5C)C3)cc2)C[C@H]1N [Example 32, 5-[(4R,8R,9aS)-8-[3-[4-[(3R,4S)-3-amino-4-methoxy-pyrrolidin-1-yl]phenyl]azetidin-1-yl]-4-methyl-1,3,4,6,7,8,9,9a-octahydropyrido[1,2-a]pyrazin-2-yl]quinoline-8-carbonitrile]"
6,7.39,"CO[C@H]1CN(c2ccc([C@@H]3CCN4[C@@H](C3)CN(c3ccc(C#N)c5ncccc35)C[C@H]4C)cn2)C[C@@H]1N [Example 6, 5-[(4R,8R,9aS)-8-[6-[(3S,4S)-3-amino-4-methoxy-pyrrolidin-1-yl]-3-pyridyl]-4-methyl-1,3,4,6,7,8,9,9a-octahydropyrido[1,2-a]pyrazin-2-yl]quinoline-8-carbonitrile]"
7,7.82,"C[C@@H]1CN(c2ccc(C#N)c3ncccc23)C[C@@H]2C[C@H](c3ccc(N4C[C@@H](N)[C@@H](F)C4)nc3)CCN21 [Example 19, 5-[(4R,8R,9aS)-8-[6-[(3R,4S)-3-amino-4-fluoro-pyrrolidin-1-yl]-3-pyridyl]-4-methyl-1,3,4,6,7,8,9,9a-octahydropyrido[1,2-a]pyrazin-2-yl]quinoline-8-carbonitrile]"
8,7.57,"C[C@@H]1CN(c2ccc(C#N)c3ncccc23)C[C@@H]2C[C@H](N3CC(c4ccc(N5CCNCC5)cc4)C3)CCN21 [Example 9, 5-[(4R,8R,9aS)-4-methyl-8-[3-(4-piperazin-1-ylphenyl)azetidin-1-yl]-1,3,4,6,7,8,9,9a-octahydropyrido[1,2-a]pyrazin-2-yl]quinoline-8-carbonitrile]"
9,8.10,"C[C@@H]1CN(c2ccc(C#N)c3ncccc23)C[C@@H]2CC(c3ccc(C[C@@H]4CNCCO4)cc3)CCN21 (stereo in doubt) [Example 25, 5-[(4R,8R,9aS)-4-methyl-8-[4-[[(2R)-morpholin-2-yl]methyl]phenyl]-1,3,4,6,7,8,9,9a-octahydropyrido[1,2-a]pyrazin-2-yl]quinoline-8-carbonitrile]"
10,7.36,"[2H]c1ccc2c(N3C[C@@H]4C[C@H](Nc5ccc(C[C@@H]6CNCCO6)cc5)CCN4[C@H](C)C3)ccc(C#N)c2n1 [Example 22, 5-[(4R,8R,9aS)-4-methyl-8-[4-[[(2R)-morpholin-2-yl]methyl]anilino]-1,3,4,6,7,8,9,9a-octahydropyrido[1,2-a]pyrazin-2-yl]-2-deuterio-quinoline-8-carbonitrile]"
11,8.22,"C[C@@H]1CN(c2ccc(C#N)c3ncccc23)C[C@@H]2C[C@H](c3ccc(N4CCNCC4)nc3)CCN21 [Example 4, 5-[(4R,8R,9aS)-4-methyl-8-(6-piperazin-1-yl-3-pyridyl)-1,3,4,6,7,8,9,9a-octahydropyrido[1,2-a]pyrazin-2-yl]quinoline-8-carbonitrile]"
12,7.46,"C[C@@H]1CN(c2ccc(C#N)c3ncccc23)C[C@@H]2C[C@@H](NCc3ccc(N4CCNCC4)cc3)CCN21 [Example 17, 5-[(4R,8S,9aS)-4-methyl-8-[(4-piperazin-1-ylphenyl)methylamino]-1,3,4,6,7,8,9,9a-octahydropyrido[1,2-a]pyrazin-2-yl]quinoline-8-carbonitrile]"

# Source: patent US12421229B2, “Hydropyrido[1,2-α]pyrazine compounds for the treatment of autoimmune disease” (Hoffmann-La Roche Inc., priority 2019, dated 2025)
